According to ChEMBL document CHEMBL1909046, “DrugMatrix in vitro pharmacology data”:

Columns and labels:
[1] = molecular target: Aldo-keto reductase family 1 member B1 (Rattus norvegicus, UniProt P07943); type: tissue-based, Lens of camera-type eye;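 note: inhibition of aldose reductase enzyme activity, measured with DL-glyceraldehyde as the substrate; in other assays of this panel Not Active means under 50% inhibition at 10 µM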
[2] = DRUGMATRIX: ATPase, Na+/K+ enzyme inhibition (substrate: ATP); type: tissue-based, Sus scrofa, Heart; conditions: Not Active = under 50% inhibition at 10 µM
[3] = molecular target: Vascular endothelial growth factor receptor 1 (Homo sapiens, UniProt P17948); type: cell-based; conditions: huvec; note: in other assays of this panel Not Active means under 50% inhibition at 10 µM
Carbonic anhydrase 2 = Carbonic anhydrase 2 (Homo sapiens, UniProt P00918); assay: DRUGMATRIX: Carbonic Anhydrase II enzyme inhibition (substrate: 4-Nitrophenyl acetate (4-NPA)); type: tissue-based, Erythrocyte; conditions: erythrocyte; Not Active = under 50% inhibition at 10 µM
[4] = DRUGMATRIX: GABAA, Chloride Channel, TBOB radioligand binding (ligand: [3H] TBOB); type: cell membranes, Rattus norvegicus, Wistar, Cerebral cortex, Membrane; conditions: Not Active = under 50% inhibition at 10 µM
Leukotriene C4 synthase = molecular target: T1, Leukotriene C4 synthase (Cavia porcellus, UniProt A6XA80); assay: biochemical; type: tissue-based, Lung;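 note: enzyme inhibition assay of leukotriene C4 synthase, using LTA4 as the substrate; in other assays of this panel Not Active means under 50% inhibition at 10 µM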
T1 sequence (A6XA80 whole entry): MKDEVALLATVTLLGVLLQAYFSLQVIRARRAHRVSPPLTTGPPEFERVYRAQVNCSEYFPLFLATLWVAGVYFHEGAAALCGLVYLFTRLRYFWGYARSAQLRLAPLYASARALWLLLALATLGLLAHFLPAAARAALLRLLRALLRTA

[5] = molecular target: T2, Cysteinyl leukotriene receptor 1 (Homo sapiens, UniProt Q9Y271); type: cell membranes, CHO-K1, Membrane; conditions: cho-k1; note: in other assays of this panel Not Active means under 50% inhibition at 10 µM
T2 sequence (Q9Y271 whole entry): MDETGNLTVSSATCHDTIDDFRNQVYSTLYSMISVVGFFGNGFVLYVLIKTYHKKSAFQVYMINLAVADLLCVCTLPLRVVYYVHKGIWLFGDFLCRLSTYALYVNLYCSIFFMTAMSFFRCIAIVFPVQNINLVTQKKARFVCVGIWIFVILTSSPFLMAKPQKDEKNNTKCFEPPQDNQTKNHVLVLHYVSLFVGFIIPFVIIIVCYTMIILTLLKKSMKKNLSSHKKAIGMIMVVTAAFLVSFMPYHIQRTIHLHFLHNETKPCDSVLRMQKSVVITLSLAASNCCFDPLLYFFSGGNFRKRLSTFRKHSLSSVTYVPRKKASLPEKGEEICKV

Melanocortin receptor 3 = Melanocortin receptor 3 (Homo sapiens, UniProt P41968); type: cell membranes, Membrane; conditions: hek293; note: in other assays of this panel Not Active means under 50% inhibition at 10 µM
[6] = molecular target: T3, Muscarinic acetylcholine receptor M5 (Homo sapiens, UniProt P08912); type: cell membranes, CHO-K1, Membrane; note: in other assays of this panel Not Active means under 50% inhibition at 10 µM
T3 sequence (P08912 whole entry): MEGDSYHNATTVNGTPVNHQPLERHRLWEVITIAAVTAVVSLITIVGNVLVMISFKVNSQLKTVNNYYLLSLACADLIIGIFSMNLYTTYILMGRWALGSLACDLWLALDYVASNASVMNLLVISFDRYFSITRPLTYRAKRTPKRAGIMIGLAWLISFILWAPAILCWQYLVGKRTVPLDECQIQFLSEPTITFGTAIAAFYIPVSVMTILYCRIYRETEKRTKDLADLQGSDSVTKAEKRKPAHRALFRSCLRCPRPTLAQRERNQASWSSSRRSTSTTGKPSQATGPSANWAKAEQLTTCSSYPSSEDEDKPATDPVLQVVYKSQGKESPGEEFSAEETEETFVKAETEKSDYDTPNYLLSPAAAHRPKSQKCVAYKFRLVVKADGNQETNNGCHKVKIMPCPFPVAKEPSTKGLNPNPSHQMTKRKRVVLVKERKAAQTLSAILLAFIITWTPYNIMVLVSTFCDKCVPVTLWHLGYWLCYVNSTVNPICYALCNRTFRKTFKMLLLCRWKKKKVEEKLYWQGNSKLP

[7] = molecular target: Kappa-type opioid receptor (Homo sapiens, UniProt P41145); assay: DRUGMATRIX: Opiate kappa (OP2, KOP) radioligand binding (ligand: [3H] Diprenorphine); type: cell membranes, HEK293, Membrane; conditions: hek293; Not Active = under 50% inhibition at 10 µM
[8] = DRUGMATRIX: Phosphodiesterase PDE3 enzyme inhibition (substrate: [3H]cAMP + cAMP); type: tissue-based, Homo sapiens; conditions: platelet; Not Active = under 50% inhibition at 10 µM
[9] = DRUGMATRIX: Potassium Channel [KATP] radioligand binding (ligand: [3H] Glyburide); type: cell membranes, Membrane; conditions: hit-t15; Not Active = under 50% inhibition at 10 µM
[10] = molecular target: Protein kinase C alpha type (Homo sapiens, UniProt P17252); type: cell-based; conditions: sf9
[11] = molecular target: Tyrosine-protein kinase Fyn (Homo sapiens, UniProt P06241); assay: biochemical; type: cell-based, Insect cells; conditions: insect cells
[12] = molecular target: T4, 5-hydroxytryptamine receptor 1A (Rattus norvegicus, UniProt P19327); type: cell membranes, CHO-K1, Membrane; note: in other assays of this panel Not Active means under 50% inhibition at 10 µM
T4 sequence (P19327 whole entry): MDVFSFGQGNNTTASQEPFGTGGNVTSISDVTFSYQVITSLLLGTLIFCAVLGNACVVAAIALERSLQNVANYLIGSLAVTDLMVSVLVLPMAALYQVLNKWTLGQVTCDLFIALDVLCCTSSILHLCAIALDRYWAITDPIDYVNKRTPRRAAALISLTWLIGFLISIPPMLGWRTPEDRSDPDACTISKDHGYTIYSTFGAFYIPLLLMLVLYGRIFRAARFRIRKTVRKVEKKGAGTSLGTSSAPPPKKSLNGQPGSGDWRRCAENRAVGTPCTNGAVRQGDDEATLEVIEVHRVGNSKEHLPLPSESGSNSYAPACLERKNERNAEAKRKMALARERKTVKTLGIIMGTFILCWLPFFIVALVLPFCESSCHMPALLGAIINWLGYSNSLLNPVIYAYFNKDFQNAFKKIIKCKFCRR

Adenosine receptor A3 = molecular target: T5, Adenosine receptor A3 (Homo sapiens, UniProt P0DMS8); type: cell membranes, CHO-K1, Membrane; conditions: cho-k1
T5 sequence (P0DMS8 whole entry): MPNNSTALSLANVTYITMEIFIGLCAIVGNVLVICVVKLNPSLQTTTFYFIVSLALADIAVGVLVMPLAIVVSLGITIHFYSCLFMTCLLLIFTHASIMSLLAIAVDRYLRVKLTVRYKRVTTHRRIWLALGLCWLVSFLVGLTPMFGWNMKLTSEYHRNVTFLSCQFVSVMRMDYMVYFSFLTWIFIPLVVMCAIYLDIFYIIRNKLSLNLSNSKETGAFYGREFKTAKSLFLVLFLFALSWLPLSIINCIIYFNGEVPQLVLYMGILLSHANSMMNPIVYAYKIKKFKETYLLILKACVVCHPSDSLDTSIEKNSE

[13] = molecular target: Beta-2 adrenergic receptor (Homo sapiens, UniProt P07550); assay: DRUGMATRIX: Adrenergic beta2 radioligand binding (ligand: [3H] CGP-12177); type: cell membranes, Membrane; conditions: cho; Not Active = under 50% inhibition at 10 µM
Beta-2 adrenergic receptor, sequence (P07550 whole entry): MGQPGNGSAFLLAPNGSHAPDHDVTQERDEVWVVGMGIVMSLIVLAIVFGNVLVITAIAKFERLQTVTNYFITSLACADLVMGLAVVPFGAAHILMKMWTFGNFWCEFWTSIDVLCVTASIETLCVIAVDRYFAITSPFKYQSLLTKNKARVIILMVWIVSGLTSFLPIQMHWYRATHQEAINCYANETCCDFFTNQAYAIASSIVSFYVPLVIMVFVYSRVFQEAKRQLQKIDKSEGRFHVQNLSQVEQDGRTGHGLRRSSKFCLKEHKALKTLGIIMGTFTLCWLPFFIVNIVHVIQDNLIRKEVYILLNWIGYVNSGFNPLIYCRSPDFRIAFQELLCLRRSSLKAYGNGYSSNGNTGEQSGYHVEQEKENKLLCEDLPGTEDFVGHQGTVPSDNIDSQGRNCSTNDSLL

Vascular endothelial growth factor receptor 1, sequence (P17948 whole entry): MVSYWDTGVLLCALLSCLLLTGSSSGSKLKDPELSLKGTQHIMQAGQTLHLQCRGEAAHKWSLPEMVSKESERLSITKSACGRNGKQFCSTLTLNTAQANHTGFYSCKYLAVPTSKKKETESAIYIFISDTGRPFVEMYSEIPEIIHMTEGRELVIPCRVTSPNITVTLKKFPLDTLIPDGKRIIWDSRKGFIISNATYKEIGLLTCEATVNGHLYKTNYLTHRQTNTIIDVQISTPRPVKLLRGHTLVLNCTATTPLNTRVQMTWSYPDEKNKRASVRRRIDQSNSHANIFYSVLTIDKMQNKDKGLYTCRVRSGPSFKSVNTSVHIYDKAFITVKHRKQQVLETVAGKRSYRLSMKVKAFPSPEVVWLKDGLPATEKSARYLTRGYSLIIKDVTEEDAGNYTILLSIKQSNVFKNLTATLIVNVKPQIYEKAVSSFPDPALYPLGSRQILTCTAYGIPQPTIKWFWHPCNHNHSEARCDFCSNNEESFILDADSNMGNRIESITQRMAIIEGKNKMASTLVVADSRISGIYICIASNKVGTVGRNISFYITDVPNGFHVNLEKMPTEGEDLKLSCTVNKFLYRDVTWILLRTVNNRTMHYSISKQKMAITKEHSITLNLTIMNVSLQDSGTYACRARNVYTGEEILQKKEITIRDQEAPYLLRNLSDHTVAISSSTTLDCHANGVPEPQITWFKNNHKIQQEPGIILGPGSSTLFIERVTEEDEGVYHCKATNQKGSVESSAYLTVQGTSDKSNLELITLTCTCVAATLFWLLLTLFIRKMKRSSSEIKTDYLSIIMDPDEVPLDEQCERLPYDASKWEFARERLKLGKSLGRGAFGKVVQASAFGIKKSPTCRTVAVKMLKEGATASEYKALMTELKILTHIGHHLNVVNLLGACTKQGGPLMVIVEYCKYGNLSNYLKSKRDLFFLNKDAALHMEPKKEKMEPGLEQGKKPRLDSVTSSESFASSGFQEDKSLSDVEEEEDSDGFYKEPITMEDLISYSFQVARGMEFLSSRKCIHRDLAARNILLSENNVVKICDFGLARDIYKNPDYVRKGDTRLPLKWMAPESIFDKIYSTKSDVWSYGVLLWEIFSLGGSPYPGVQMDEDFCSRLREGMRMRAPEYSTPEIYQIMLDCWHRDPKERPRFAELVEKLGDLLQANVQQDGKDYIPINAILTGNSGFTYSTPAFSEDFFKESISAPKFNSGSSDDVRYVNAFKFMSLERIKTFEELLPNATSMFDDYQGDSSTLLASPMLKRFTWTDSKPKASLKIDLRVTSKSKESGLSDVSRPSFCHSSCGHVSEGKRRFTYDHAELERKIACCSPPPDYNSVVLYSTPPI
Tyrosine-protein kinase Fyn, sequence (P06241 whole entry): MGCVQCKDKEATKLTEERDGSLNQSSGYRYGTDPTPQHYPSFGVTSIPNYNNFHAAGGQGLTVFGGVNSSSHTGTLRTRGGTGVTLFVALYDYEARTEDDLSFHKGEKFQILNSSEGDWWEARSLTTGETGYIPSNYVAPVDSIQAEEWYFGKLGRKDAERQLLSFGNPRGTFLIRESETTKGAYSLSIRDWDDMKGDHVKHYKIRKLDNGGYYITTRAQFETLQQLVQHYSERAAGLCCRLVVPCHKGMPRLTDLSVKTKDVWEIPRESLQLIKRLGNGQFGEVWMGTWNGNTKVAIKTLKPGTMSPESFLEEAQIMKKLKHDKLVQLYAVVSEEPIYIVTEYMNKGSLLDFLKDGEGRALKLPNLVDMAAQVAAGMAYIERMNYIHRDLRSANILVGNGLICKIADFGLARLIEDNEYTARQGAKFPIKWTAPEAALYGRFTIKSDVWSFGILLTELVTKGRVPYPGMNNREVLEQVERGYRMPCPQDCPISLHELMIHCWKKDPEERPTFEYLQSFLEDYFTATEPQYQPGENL
Melanocortin receptor 3, sequence (P41968 whole entry): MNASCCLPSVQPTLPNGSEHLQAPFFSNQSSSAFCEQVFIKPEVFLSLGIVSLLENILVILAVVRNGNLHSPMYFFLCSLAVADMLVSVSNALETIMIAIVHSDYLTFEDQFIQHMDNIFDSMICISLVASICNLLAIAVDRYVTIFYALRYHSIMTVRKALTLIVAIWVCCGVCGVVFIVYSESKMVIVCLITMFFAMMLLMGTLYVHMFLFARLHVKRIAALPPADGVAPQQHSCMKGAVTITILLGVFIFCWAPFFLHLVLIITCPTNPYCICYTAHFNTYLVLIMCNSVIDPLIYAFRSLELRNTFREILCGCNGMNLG
Kappa-type opioid receptor, sequence (P41145 whole entry): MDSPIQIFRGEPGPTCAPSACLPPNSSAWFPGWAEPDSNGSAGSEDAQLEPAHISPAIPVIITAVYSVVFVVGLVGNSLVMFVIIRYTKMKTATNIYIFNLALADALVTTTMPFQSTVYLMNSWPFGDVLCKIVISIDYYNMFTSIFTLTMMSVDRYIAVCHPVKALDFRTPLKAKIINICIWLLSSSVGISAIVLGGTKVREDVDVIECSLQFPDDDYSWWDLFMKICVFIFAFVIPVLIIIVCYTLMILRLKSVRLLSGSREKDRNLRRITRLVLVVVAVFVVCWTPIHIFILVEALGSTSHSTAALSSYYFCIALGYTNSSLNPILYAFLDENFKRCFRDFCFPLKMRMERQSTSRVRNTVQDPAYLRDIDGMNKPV

Row | Compound | IC50 [1] | IC50 [2] | Ki [2] | IC50 [3] | IC50 (Carbonic anhydrase 2) | IC50 [4] | Ki [4] | IC50 (Leukotriene C4 synthase) | IC50 [5] | IC50 (Melanocortin receptor 3) | IC50 ([6]; cho-k1) | IC50 [7] | IC50 [8] | Ki [8] | IC50 [9] | Ki [9] | IC50 [10] | IC50 [11] | IC50 ([12]; cho-k1) | IC50 (Adenosine receptor A3) | also measured
1 | CC(C)(C)NCC(O)c1ccc(O)c(CO)c1 (configuration not stated) [ALBUTEROL] | Not Active | Not Active | Not Active | Not Active | Not Active | Not Active | Not Active | Not Active | Not Active | Not Active | Not Active | Not Active | Not Active | Not Active | Not Active | Not Active | Not Active | Not Active | Not Active | Not Active | –
2 | CN(C)CCCN1c2ccccc2CCc2ccc(Cl)cc21 [CLOMIPRAMINE] | Not Active | – | – | Not Active | Not Active | – | – | Not Active | Not Active | Not Active | – | Not Active | – | – | – | – | Not Active | Not Active | Not Active | Not Active | IC50 [13]: Not Active; IC50 ([6]; read-out: IC50): 0.053 µM; Ki ([6]; read-out: Ki): 0.038 µM
3 | O=C(CCCN1CCC(O)(c2ccc(Cl)cc2)CC1)c1ccc(F)cc1 [HALOPERIDOL] | Not Active | – | – | Not Active | Not Active | – | – | Not Active | Not Active | Not Active | – | Not Active | – | – | – | – | Not Active | Not Active | Not Active | Not Active | IC50 [13]: Not Active
4 | CC(CCc1ccccc1)NCC(O)c1ccc(O)c(C(N)=O)c1 (configuration not stated) [LABETALOL] | Not Active | Not Active | Not Active | Not Active | Not Active | Not Active | Not Active | Not Active | Not Active | Not Active | Not Active | Not Active | Not Active | Not Active | Not Active | Not Active | Not Active | Not Active | – | Not Active | IC50 ([12]; read-out: IC50): 0.393 µM; Ki ([12]; read-out: Ki): 0.225 µM
5 | COC(=O)C1=C(C)NC(C)=C(C(=O)OC)C1c1ccccc1[N+](=O)[O-] [NIFEDIPINE] | Not Active | Not Active | Not Active | Not Active | Not Active | Not Active | Not Active | Not Active | Not Active | Not Active | Not Active | Not Active | Not Active | Not Active | Not Active | Not Active | Not Active | Not Active | Not Active | – | IC50 [13]: Not Active
6 | Nc1ccc(S(N)(=O)=O)cc1 [SULFANILAMIDE] | Not Active | Not Active | Not Active | Not Active | – | Not Active | Not Active | Not Active | Not Active | Not Active | Not Active | Not Active | Not Active | Not Active | Not Active | Not Active | Not Active | Not Active | Not Active | Not Active | IC50 [13]: Not Active
7 | CC(C)(C)NCC(O)c1cc(O)cc(O)c1 (configuration not stated) [TERBUTALINE] | Not Active | Not Active | Not Active | Not Active | Not Active | Not Active | Not Active | Not Active | Not Active | Not Active | Not Active | Not Active | Not Active | Not Active | Not Active | Not Active | Not Active | Not Active | Not Active | Not Active | –
8 | COC(=O)[C@@H]1[C@H]2C[C@H]3c4[nH]c5ccccc5c4CCN3C[C@@H]2CC[C@@H]1O [YOHIMBINE] | Not Active | Not Active | Not Active | Not Active | Not Active | Not Active | Not Active | Not Active | Not Active | Not Active | Not Active | Not Active | Not Active | Not Active | Not Active | Not Active | Not Active | Not Active | – | Not Active | IC50 [13]: Not Active
